Activity calls are given as the source filed them. How the calls were made is not given here.
Tested on: CCRIS mutagenicity, Ames/micronucleus/aberration tests
Experiment: CCRIS mutagenicity studies
[1] = Test System: AMES SALMONELLA TYPHIMURIUM, Strain/Indicator: TA98, Metabolic Activation: NONE, Method: STANDARD PLATE
[2] = Test System: AMES SALMONELLA TYPHIMURIUM, Strain/Indicator: TA100, Metabolic Activation: NONE, Method: STANDARD PLATE
[3] = Test System: AMES SALMONELLA TYPHIMURIUM, Strain/Indicator: TA100, Metabolic Activation: S-9, Method: STANDARD PLATE

For `N#Cc1ccc(/C=C\c2ccc([N+](=O)[O-])cc2)cc1`, the mutagenic call (Test System: AMES SALMONELLA TYPHIMURIUM, Strain/Indicator: TA98 (NR), Metabolic Activation: NONE, Method: STANDARD PLATE) was “active; positive”, the mutagenic call (Test System: AMES SALMONELLA TYPHIMURIUM, Strain/Indicator: TA98 (NR), Metabolic Activation: S-9, Method: STANDARD PLATE) was “active; positive” and the mutagenic call [1] was “active; positive”. For the same compound, the mutagenic call (Test System: AMES SALMONELLA TYPHIMURIUM, Strain/Indicator: TA98, Metabolic Activation: S-9, Method: STANDARD PLATE) was “active; positive”, the mutagenic call (Test System: AMES SALMONELLA TYPHIMURIUM, Strain/Indicator: TA100 (NR), Metabolic Activation: NONE, Method: STANDARD PLATE) was “inactive; negative” and the mutagenic call (Test System: AMES SALMONELLA TYPHIMURIUM, Strain/Indicator: TA100 (NR), Metabolic Activation: S-9, Method: STANDARD PLATE) was “inactive; negative”. For the same compound, the mutagenic call [2] was “active; positive” and the mutagenic call [3] was “active; positive”.
`Cc1ccc2c(c1)c(=NC(=O)CCCCl)sn2C(=O)CCCCl` was tested, and the mutagenic call [3] was “inactive; negative”.
With `O=C(O)/C(Cl)=C(\CO)C(Cl)Cl` the mutagenic call (Test System: AMES SALMONELLA TYPHIMURIUM, Strain/Indicator: TA97, Metabolic Activation: NONE, Method: STANDARD PLATE) was “active; positive”, the mutagenic call (Test System: AMES SALMONELLA TYPHIMURIUM, Strain/Indicator: TA97, Metabolic Activation: RAT, LIVER, S-9, PHENOBARBITAL, Method: STANDARD PLATE) was “inactive; negative” and the mutagenic call [1] was “inactive; negative”. The mutagenic call (Test System: AMES SALMONELLA TYPHIMURIUM, Strain/Indicator: TA98, Metabolic Activation: RAT, LIVER, S-9, PHENOBARBITAL, Method: STANDARD PLATE) was “inactive; negative”, the mutagenic call [2] was “active; positive” and the mutagenic call (Test System: AMES SALMONELLA TYPHIMURIUM, Strain/Indicator: TA100, Metabolic Activation: RAT, LIVER, S-9, PHENOBARBITAL, Method: STANDARD PLATE) was “inactive; negative”.
With `N#CC(C#N)=C(C#N)C#N` the mutagenic call (Test System: AMES SALMONELLA TYPHIMURIUM, Strain/Indicator: TA98, Metabolic Activation: HAMSTER, LIVER, S-9, AROCLOR 1254 (10%), Method: STANDARD PLATE) was “inactive; negative”, the mutagenic call [1] was “inactive; negative” and the mutagenic call (Test System: AMES SALMONELLA TYPHIMURIUM, Strain/Indicator: TA98, Metabolic Activation: RAT, LIVER, S-9, AROCLOR 1254 (10%), Method: STANDARD PLATE) was “inactive; negative”. The mutagenic call (Test System: AMES SALMONELLA TYPHIMURIUM, Strain/Indicator: TA100, Metabolic Activation: HAMSTER, LIVER, S-9, AROCLOR 1254 (10%), Method: STANDARD PLATE) was “inactive; negative”, the mutagenic call [2] was “inactive; negative” and the mutagenic call (Test System: AMES SALMONELLA TYPHIMURIUM, Strain/Indicator: TA100, Metabolic Activation: RAT, LIVER, S-9, AROCLOR 1254 (10%), Method: STANDARD PLATE) was “inactive; negative”. The mutagenic call (Test System: AMES SALMONELLA TYPHIMURIUM, Strain/Indicator: TA1535, Metabolic Activation: HAMSTER, LIVER, S-9, AROCLOR 1254 (10%), Method: STANDARD PLATE) was “inactive; negative”, the mutagenic call (Test System: AMES SALMONELLA TYPHIMURIUM, Strain/Indicator: TA1535, Metabolic Activation: NONE, Method: STANDARD PLATE) was “inactive; negative” and the mutagenic call (Test System: AMES SALMONELLA TYPHIMURIUM, Strain/Indicator: TA1535, Metabolic Activation: RAT, LIVER, S-9, AROCLOR 1254 (10%), Method: STANDARD PLATE) was “inactive; negative”. For the same compound, the mutagenic call (Test System: AMES SALMONELLA TYPHIMURIUM, Strain/Indicator: TA1537, Metabolic Activation: HAMSTER, LIVER, S-9, AROCLOR 1254 (10%), Method: STANDARD PLATE) was “inactive; negative”, the mutagenic call (Test System: AMES SALMONELLA TYPHIMURIUM, Strain/Indicator: TA1537, Metabolic Activation: NONE, Method: STANDARD PLATE) was “inactive; negative” and the mutagenic call (Test System: AMES SALMONELLA TYPHIMURIUM, Strain/Indicator: TA1537, Metabolic Activation: RAT, LIVER, S-9, AROCLOR 1254 (10%), Method: STANDARD PLATE) was “inactive; negative”. For the same compound, the mutagenic call (Test System: AMES SALMONELLA TYPHIMURIUM, Strain/Indicator: TA1538, Metabolic Activation: HAMSTER, LIVER, S-9, AROCLOR 1254 (10%), Method: STANDARD PLATE) was “inactive; negative”, the mutagenic call (Test System: AMES SALMONELLA TYPHIMURIUM, Strain/Indicator: TA1538, Metabolic Activation: NONE, Method: STANDARD PLATE) was “inactive; negative” and the mutagenic call (Test System: AMES SALMONELLA TYPHIMURIUM, Strain/Indicator: TA1538, Metabolic Activation: RAT, LIVER, S-9, AROCLOR 1254 (10%), Method: STANDARD PLATE) was “inactive; negative”. The mutagenic call (Test System: MOUSE LYMPHOMA, Strain/Indicator: L5178Y (TK+/TK-), Metabolic Activation: NONE, Method: SUSPENSION/PLATE) was “inactive; negative. reevaluation of results: inconclusive” and the mutagenic call (Test System: MOUSE LYMPHOMA, Strain/Indicator: L5178Y (TK+/TK-), Metabolic Activation: RAT, LIVER, S-9, AROCLOR 1254, Method: SUSPENSION/PLATE) was “inactive; negative. reevaluation of results: inconclusive”.
`Cc1ccc(N)cc1N=Nc1cc(N)ccc1C` was tested, and the mutagenic call (Test System: AMES SALMONELLA TYPHIMURIUM, Strain/Indicator: TA98, Metabolic Activation: NONE, Method: SUSPENSION/PLATE) was “inactive; negative”, the mutagenic call (Test System: AMES SALMONELLA TYPHIMURIUM, Strain/Indicator: TA98, Metabolic Activation: RAT, LIVER, S-9, PHENOBARBITAL AND 5,6-BENZOFLAVONE, Method: SUSPENSION/PLATE) was “active; positive” and the mutagenic call (Test System: AMES SALMONELLA TYPHIMURIUM, Strain/Indicator: TA100, Metabolic Activation: NONE, Method: SUSPENSION/PLATE) was “inactive; negative”. The mutagenic call (Test System: AMES SALMONELLA TYPHIMURIUM, Strain/Indicator: TA100, Metabolic Activation: RAT, LIVER, S-9, PHENOBARBITAL AND 5,6-BENZOFLAVONE, Method: SUSPENSION/PLATE) was “active; positive”.

Reference: PubChem BioAssay AID1259407 (Chemical Carcinogenesis Research Information System (CCRIS), 2018)
